Measurements taken from publication PMC8196580, “Identification of Kaurane-Type Diterpenes as Inhibitors of Leishmania Pteridine Reductase I” (Molecules, 2021).
Like-named read-outs stand apart in the source and are kept apart here.

Key:
[1] = system: L. major; design: method as in ChEMBL; conditions: ref ChEMBL, cited from earlier work
[2] = system: L. major; test: ChEMBL dataset of pIC50 values against L. major used for the RF model (Table S1); format: cell-based, Leishmania major; further: call rule not given here
[3] = ChemBL structures with pIC50 values used for Random forest model construction (Table S1)
[4] = Active/Inactive class assigned to ChemBL structures for Random forest model construction (Table S1)
[5] = ChemBL structures with pIC50 values used for Random forest model construction, L. major
[6] = Active/Inactive class assigned to the ChEMBL pIC50 value for Random forest model construction, ref ChEMBL

Row | SMILES | pIC50 Value [1, 3] | Outcome [2, 4] | pIC50 Value [1, 5] | Outcome [2, 6]
1 | O=C(/C=C/c1ccc(-n2ccnc2)cc1)c1ccccc1 [CHEMBL571178] | 5.48 | Active | – | –
2 | O=C(CCl)n1c2ccccc2c2ccccc21 [CHEMBL1651449] | – | – | 4.00 | Inactive
3 | COc1cc(OC)c2c(C)[n+](-c3ccc4scnc4c3)c(C)cc2c1.F[B-](F)(F)F [CHEMBL515117] | – | – | 4.00 | Inactive
4 | Ic1c(-c2ccccc2)nc2c(NCCN3CCOCC3)nccn12 [CHEMBL3634359] | – | – | 4.97 | Inactive
5 | Cc1cccc(Cn2cc(CNc3nnc(-c4ccc([N+](=O)[O-])o4)s3)nn2)c1 [CHEMBL1951529] | – | – | 4.66 | Inactive
6 | Cc1cccc2cc(/C=C/C(=O)c3cc(Cl)sc3Cl)c(Cl)nc12 [CHEMBL1940868] | 5.65 | Active | – | –
7 | Cl.N=C(N)c1ccc(N2CCN(c3nnc(-c4ccc([N+](=O)[O-])o4)s3)CC2)cc1 [CHEMBL1783200] | – | – | 3.95 | Inactive
8 | CCN(CC)CCNc1ccc(Nc2c3ccccc3nc3ccccc23)cc1OC [CHEMBL92012] | 5.80 | Active | – | –
9 | CC(=O)Oc1ccc(OC(C)=O)c2c1CC1(C)CCC(=O)C(C)=C1C2=O (stereo not shown) [CHEMBL255869] | – | – | 3.65 | Inactive
10 | CN(C)c1ccc2c(Nc3ccccc3)c3ccc(N(C)C)cc3nc2c1 [CHEMBL37644] | 7.52 | Active | – | –
11 | COc1ccc(/C=N\NC(N)=S)cc1OCc1cn(CC(=O)c2ccc(Br)cc2)nn1 [CHEMBL4175020] | – | – | 5.24 | Active
12 | CN(C)CCNc1nccn2c(-c3ccncc3)c(-c3ccc(F)cc3)nc12 [CHEMBL3634366] | – | – | 4.45 | Inactive
13 | C/C=C/C=C/c1nc2cc(OC)ccc2n2cccc12 [CHEMBL3260207] | 5.52 | Active | – | –
14 | CCC(=O)N1CCCCC1[C@](C)(O)[C@H]1CC[C@H]2[C@@H]3CC[C@H]4C[C@@H](O)CC[C@]4(C)[C@H]3CC[C@@]21C (stereo partly shown) [CHEMBL1214310] | – | – | 4.27 | Inactive
15 | O=[N+]([O-])c1cccc(-c2nc3ccc([N+](=O)[O-])cc3[nH]2)c1 [CHEMBL1563210] | 5.56 | Active | – | –
16 | Clc1cccc(-c2c(-c3ccccc3)nc3cnccn23)c1 [CHEMBL3634354] | – | – | 4.84 | Inactive

Row | SMILES | pIC50 Value [1, 3] | Outcome [2, 4] | pIC50 Value [1, 5] | Outcome [2, 6]
17 | CCCN1CN(CC(=O)OCc2ccccc2)CSC1=S [CHEMBL4289905] | – | – | 4.03 | Inactive
18 | COc1cc(OC)c(-c2ccc(OC)c3c(OC)cc(C)cc23)c2c1C(C)=N[C@@H](C)C2 [CHEMBL390586] | – | – | 4.00 | Inactive
19 | CC(=O)C1=C(CNc2ccc(C(=O)/C=C/c3ccccc3)cc2)N(C)C(=O)NC1c1ccccc1 (stereo not shown) [CHEMBL3786339] | 5.94 | Active | – | –
20 | Cc1cccc2cc(/C=C/C(=O)c3ccc(I)s3)c(Cl)nc12 [CHEMBL1940871] | 5.82 | Active | – | –
21 | c1ccc2c(Nc3ccc(NC4CCCC4)cc3)c3ccccc3nc2c1 [CHEMBL90679] | 6.35 | Active | – | –
22 | Cc1cccc2cc(/C=C/C(=O)c3sccc3Cl)c(Cl)nc12 [CHEMBL1940866] | 5.65 | Active | – | –
23 | Cc1cccc2cc(/C=C/C(=O)c3ccsc3)c(Cl)nc12 [CHEMBL1940861] | 5.71 | Active | – | –
24 | O=C(c1ccccc1Cl)N1CCN(c2nnc(-c3ccc([N+](=O)[O-])o3)s2)CC1 [CHEMBL458179] | – | – | 4.97 | Inactive
25 | CCCCCCNc1ccc(Nc2c3ccccc3nc3ccccc23)cc1 [CHEMBL299581] | 6.26 | Active | – | –
26 | Clc1ccc2c(N3CCN(Cc4ccc(-c5ccccc5)cc4)CC3)ccnc2c1 [CHEMBL1256766] | – | – | 4.49 | Inactive
27 | CCOc1cc(NC(=N)c2ccccn2)ccc1-c1ccc(-c2ccc(NC(=N)c3ccccn3)cc2OCC)o1 [CHEMBL1276549] | 7.59 | Active | – | –
28 | COc1ccccc1-c1nc2ccccn2c1-c1ccccc1 [CHEMBL2151883] | – | – | 4.74 | Inactive
29 | O/N=C1/c2ccccc2OC(c2cccc(Cl)c2)C1n1ccnc1 (stereo not shown) [CHEMBL4088885] | – | – | 4.58 | Inactive
30 | CCOC(=N)c1ccc(N2CCN(c3nnc(-c4ccc([N+](=O)[O-])o4)s3)CC2)cc1.Cl [CHEMBL1783199] | – | – | 4.32 | Inactive
31 | CC(C)N1CSC(=S)N(C(C)c2ccccc2)C1 (stereo not shown) [CHEMBL4283106] | – | – | 4.67 | Inactive
32 | CN[C@@H](C)[C@H]1CC[C@H]2[C@@H]3CC[C@H]4C[C@@H](N(C)C(=O)c5ccccc5)CC[C@]4(C)[C@H]3CC[C@]12C [CHEMBL503323] | – | – | 5.06 | Active
